The assay deals with KFDV NS5 (Kyasanur Forest disease virus, UniProt D7RF80). As to the kind of experiment: biochemical.
KFDV NS5, sequence (D7RF80 2518-3410 limits assumed): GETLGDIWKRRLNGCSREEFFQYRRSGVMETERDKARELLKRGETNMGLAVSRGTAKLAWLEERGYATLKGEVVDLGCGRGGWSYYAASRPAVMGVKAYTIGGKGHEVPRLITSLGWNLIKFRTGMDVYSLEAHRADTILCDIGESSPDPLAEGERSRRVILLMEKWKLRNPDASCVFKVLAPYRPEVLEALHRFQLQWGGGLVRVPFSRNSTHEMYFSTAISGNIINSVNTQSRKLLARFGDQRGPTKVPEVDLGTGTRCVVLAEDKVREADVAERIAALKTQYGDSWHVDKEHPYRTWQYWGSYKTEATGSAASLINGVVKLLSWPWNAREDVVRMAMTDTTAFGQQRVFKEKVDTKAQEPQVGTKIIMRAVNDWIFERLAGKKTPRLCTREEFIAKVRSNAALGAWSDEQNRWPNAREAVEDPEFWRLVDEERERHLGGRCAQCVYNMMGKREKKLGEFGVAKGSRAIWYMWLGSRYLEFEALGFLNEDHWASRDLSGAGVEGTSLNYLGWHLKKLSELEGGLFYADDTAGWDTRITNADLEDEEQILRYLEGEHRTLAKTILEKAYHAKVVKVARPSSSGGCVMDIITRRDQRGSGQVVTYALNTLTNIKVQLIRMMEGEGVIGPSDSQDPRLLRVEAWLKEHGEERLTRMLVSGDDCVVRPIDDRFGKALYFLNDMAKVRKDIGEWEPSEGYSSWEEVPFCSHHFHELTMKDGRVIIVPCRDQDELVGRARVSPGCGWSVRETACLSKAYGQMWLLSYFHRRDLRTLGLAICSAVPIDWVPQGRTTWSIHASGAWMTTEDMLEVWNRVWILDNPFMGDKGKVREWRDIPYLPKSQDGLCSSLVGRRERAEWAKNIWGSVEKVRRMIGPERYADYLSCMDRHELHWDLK

As a reminder, the IC50 is the concentration that inhibits the measured activity by half. A low value points to higher potency. Compound `CC(C)OC(=O)[C@H](C)N[P@](=O)(OC[C@H]1O[C@@H](n2ccc(=O)[nH]c2=O)[C@](C)(F)[C@@H]1O)Oc1ccccc1` [Sofosbuvir, L-Alanine, N-[[P(S),2’R]-2’-deoxy-2’-fluoro-2’-methyl-P-phenyl-5’-uridylyl]-,1-methyl ethyl ester] yielded a half-inhibitory concentration (IC50) of 3.45 ± 0.012 µM.
As for `C[C@@]1(F)[C@H](O)[C@@H](COP(=O)(O)OP(=O)(O)OP(=O)(O)O)O[C@H]1n1ccc(=O)[nH]c1=O` [sofosbuvir triphosphate, β-D-2’-deoxy-2’-fluoro-2’-C-methyluridine 5’-triphosphate], half-maximal inhibition (IC50) was put at 3.73 ± 0.033 µM.

The values are drawn from paper doi:10.1101/2022.06.29.498065v2 (biorxiv, 2022).
